# Experimental data: article PMC8379256, “A xanthene derivative, DS20060511, attenuates glucose intolerance by inducing skeletal muscle-specific GLUT4 translocation in mice” (Communications Biology, 2021)
# Where “and” joins values, the source holds several entries; their conditions need not be identical. Equal values may be shown once.
# Legend:
# STZ-treated C57BL/6 mice = assay: Insulin tolerance test (ITT) in STZ-treated C57BL/6 mice; format: in vivo, mouse; settings: for Blood glucose: ITT
# Method: Arrowheads indicate the characteristic ruffled structure of the polymerized actin and actin-associated surface GLUT4. d GLUT4 translocation activity of 30 μM DS20060511 or 100 nM insulin in the presence of the actin polymerization inhibitor, Latrunculin B, at the indicated concentrations. Values shown are means ± SEM, n = 3. **P < 0.01 vs. 0 nM Latrunculin B by one-way ANOVA followed by Dunnett’s test. e Concentration-dependent insulin-stimulated GLUT4 translocation in L6-GLUT4myc myotubes with or without 30 μM DS20060511 (n = 3). f Concentration-dependent DS20060511-stimulated 2-DG uptake with 100 nM insulin in isolated muscles from C57BL/6 mice (n = 3). Values shown are means ± SEM. ***P < 0.001 by one-way ANOVA followed by Tukey’s test. g Blood glucose levels during ITT in STZ-treated C57BL/6 mice (n = 6–7). Vehicle or indicated dose of DS20060511 was given orally at the same time as 0.1 U kg^−1 insulin injection intraperitoneally. Values shown are means ± SEM. *P < 0.05 vs. vehicle by one-way ANOVA followed by Dunnett’s test. c Scale bar in all panels, 5 μm. Uncropped blots for a and b can be found in Supplementary Fig. 6.
# C57BL/6 mice deprived of access to food overnight received an intraperitoneal injection of STZ (125 mg kg^−1) and a repeat injection a week later. Thereafter, their blood glucose levels were monitored and insufficient mice (blood glucose levels of under 400 mg dL^−1 or blood glucose levels after overnight food deprivation of under 200 mg dL^−1) were excluded from the experiment. Blood glucose levels were measured using Glutest Every (Sanwa Kagaku Kenkyusho, Nagoya, Japan) in blood samples collected from the tail vein.
# Mice received the indicated oral dose of DS20060511 or vehicle at the same time as the intraperitoneal injection of insulin (Humulin) at the indicated dose. Blood glucose levels were measured using Glutest Every in blood samples collected from the tail vein at the indicated timepoints.
# C57BL/6 mice = assay: In vivo [3H]-2-DG uptake into tissues during intraperitoneal GTT; parameters: species or system mouse; settings: for count (dpm) 2DG / count (dpm) Total / dpm/mg 2DG / dpm/mg 2DGP / dpm/mg Total / Ratio: 30 mg/kg; for Ratio: 2DGP relative to vehicle
# Method: Tissue glucose uptake was examined by measuring the uptake of [^3H]-2-DG during an intraperitoneal GTT as described previously[46],[47], with minor modifications. Mice that had been denied access to food overnight received oral administration of 30 mg kg^−1 of DS20060511 or vehicle 15 min prior to the glucose load. The mice then received intraperitoneal glucose administration (1 g kg^−1 containing 100 μCi kg^−1 [^3H]-2-DG as tracer), followed by quick removal of the tissues 60 min later. Tissue samples were homogenized in 0.5% perchloric acid and centrifuged, and the supernatants were neutralized with KOH. One aliquot of the supernatants was used for measuring the total radioactivity ([^3H]-2-DG and [^3H]-2-DG 6-phosphate ([^3H]-2-DGP)). A second aliquot of the supernatants was treated with 1 N Ba(OH)2 and 1 N ZnSO4 to remove [^3H]-2-DGP, and the [^3H]-2-DG count was measured. 2-DG uptake into the tissue, which is rapidly metabolized to 2-DGP in the tissue, was estimated by subtracting the count of [^3H]-2-DG from the total count. ^3H-specific activities were counted using a liquid scintillation counter.
structure (smiles),measurement,setting,value
COc1ccc2c(C)c(C(=O)O)ccc2c1C1C2=C(CC(C)(C)CC2=O)OC2=C1C(=O)CC(C)(C)C2 [DS20060511],Blood glucose,"STZ-treated C57BL/6 mice; 10 mg/kg po with 0.1 U kg−1 insulin ip, 0 min, 10 mg/kg",516 mg/dL and 430 mg/dL and 520 mg/dL and 493 mg/dL and 480 mg/dL and 526 mg/dL
same,Blood glucose,"STZ-treated C57BL/6 mice; 10 mg/kg with insulin, 20 min, 10 mg/kg",427 mg/dL and 401 mg/dL and 313 mg/dL and 397 mg/dL and 311 mg/dL and 432 mg/dL
same,Blood glucose,"STZ-treated C57BL/6 mice; 30 mg/kg po with 0.1 U kg−1 insulin ip, 0 min, 30 mg/kg",433 mg/dL and 472 mg/dL and 458 mg/dL and 427 mg/dL and 461 mg/dL and 483 mg/dL and 532 mg/dL
same,"blood glucose levels, combined with insulin vs insulin alone (in words)","STZ-treated C57BL/6 mice; STZ-treated mice, Fig. 4g",reduced to a greater degree
same,count (dpm) 2DG,C57BL/6 mice; Gastro.,405 dpm and 366 dpm and 390 dpm
same,count (dpm) Total,C57BL/6 mice; Gastro.,1890 dpm and 1397 dpm and 1924 dpm
same,dpm/mg 2DG,C57BL/6 mice; Gastro.,63.3 dpm/mg and 57.2 dpm/mg and 60.9 dpm/mg
same,dpm/mg 2DGP,C57BL/6 mice; Gastro.,54.8 dpm/mg and 30.1 dpm/mg and 59.3 dpm/mg
same,dpm/mg Total,C57BL/6 mice; Gastro.,118.1 dpm/mg and 87.3 dpm/mg and 120.3 dpm/mg
same,Ratio,C57BL/6 mice; Gastro.,4.35 and 2.39 and 4.70
same,count (dpm) 2DG,C57BL/6 mice; Heart,398 dpm and 423 dpm and 382 dpm
same,count (dpm) Total,C57BL/6 mice; Heart,1218 dpm and 1277 dpm and 1201 dpm
same,dpm/mg 2DG,C57BL/6 mice; Heart,62.2 dpm/mg and 66.1 dpm/mg and 59.7 dpm/mg
same,dpm/mg 2DGP,C57BL/6 mice; Heart,39.3 dpm/mg and 40.3 dpm/mg and 40.4 dpm/mg
same,dpm/mg Total,C57BL/6 mice; Heart,101.5 dpm/mg and 106.4 dpm/mg and 100.1 dpm/mg
same,Ratio,C57BL/6 mice; Heart,0.90 and 0.93
same,count (dpm) 2DG,C57BL/6 mice; Soleus,214 dpm and 169 dpm and 183 dpm
same,dpm/mg 2DG,C57BL/6 mice; Soleus,100.3 dpm/mg and 79.2 dpm/mg and 85.8 dpm/mg
same,dpm/mg Total,C57BL/6 mice; Soleus,286.0 dpm/mg and 229.5 dpm/mg and 201.0 dpm/mg
same,count (dpm) Total,"C57BL/6 mice; Soleus, 30 mg/kg po, 60 min during ip GTT",572 dpm and 459 dpm and 402 dpm
same,dpm/mg 2DGP,"C57BL/6 mice; Soleus, 2-DG uptake = Total minus 2DG",185.7 dpm/mg and 150.3 dpm/mg and 115.2 dpm/mg
same,Ratio,C57BL/6 mice; Soleus,4.96 and 4.02 and 3.08
same,count (dpm) 2DG,C57BL/6 mice; WAT,697 dpm and 877 dpm and 734 dpm
same,count (dpm) Total,C57BL/6 mice; WAT,1450 dpm and 1799 dpm and 1511 dpm
same,dpm/mg 2DG,C57BL/6 mice; WAT,34.9 dpm/mg and 43.9 dpm/mg and 36.7 dpm/mg
same,dpm/mg 2DGP,C57BL/6 mice; WAT,13.5 dpm/mg and 16.1 dpm/mg and 13.7 dpm/mg
same,dpm/mg Total,C57BL/6 mice; WAT,48.3 dpm/mg and 60.0 dpm/mg and 50.4 dpm/mg
same,Ratio,C57BL/6 mice; WAT,0.99 and 1.18 and 1.00
same,uptake of [3H]-2-DG (in words),"C57BL/6 mice; soleus and gastrocnemius muscles, ip GTT, 30 mg kg−1",significant increase
